Laboratory results: patent US6576254B1, “Polyamino acid vesicles” (University of Strathclyde, priority 1998, dated 2003)

System: A549 cells
Experiment: Transfection of A549 cells with POP:cholesterol vesicles complexed to pCMV-sport-β-gal plasmid (β-galactosidase activity, absorbance 420 nm)
Assay type: cell-based
Settings: 50 μM chloroquine added during transfection with POP:cholesterol vesicle-plasmid complexes
Method: Transfection experiments were carried out with the endotoxin free pCMV-sport-β-gal plasmid. 96-well plates were seeded with A549 calls (10,000 cells well^−1, 50,000 cells mL^−1) and incubated overnight with DMEM/F10+10% foetal calf serum (FCS)-Life Sciences, UK in 2% CO2 at 37° C. […] The mixture was incubated for 4 h (2% CO2, 37° C.) after which the media and POP-plasmid complexes were removed and replaced with DMEM/F10+10% FCS (0.2 mL). Cells were fed daily (DMEM/F10+10% FCS) over a 48 h period at the end of which they were lysed by the addition of 0.05 mL triton X-100 buffer (0.1% triton X-100, 0.25M tris hydrochloride, pH=8.0). The cells were then frozen at −70° C. and thawed at room temperature and 0.5% bovine serum albumin in phosphate buffered saline (0.05 mL) added to each well. This was followed by the addition of 0.15 mL ONPG (o-nitrophenyl β-D-galactopyranoside) in buffer (0.06M sodium dibasic phosphate, 0.001M magnesium chloride, 0.01M potassium chloride, 0.05M β-mercaptoethanol, pH=8.0). β-galactosidase activity was estimated by measuring the absorbance (420 nm) on a microtitre plate reader.

CCN(CC)CCCC(C)Nc1ccnc2cc(Cl)ccc12 (stereo not shown) [chloroquine]
Effect on transfection levels: increase transfection levels
